Patent US20250090505A1, “Methods for Preventing Ectopic Brain Mineralization in Alzheimer's Disease and Dementias” (Tzerma LLC, priority 2022, published 2025)

B1: TNAP: human tissue nonspecific alkaline phosphatase, element that triggers biomineralization (protein, UniProt P05186 18-501, looked up)
Alkaline phosphatase, …: LVPEKEKDPKYWRDQAQETLKYALELQKLNTNVAKNVIMFLGDGMGVSTVTAARILKGQLHHNPGEETRLEMDKFPFVALSKTYNTNAQVPDSAGTATAYLCGVKANEGTVGVSAATERSRCNTTQGNEVTSILRWAKDAGKSVGIVTTTRVNHATPSAAYAHSADRDWYSDNEMPPEALSQGCKDIAYQLMHNIRDIDVIMGGGRKYMYPKNKTDVEYESDEKARGTRLDGLDLVDTWKSFKPRYKHSHFIWNRTELLTLDPHNVDYLLGLFEPGDMQYELNRNNVTDPSLSEMVVVAIQILRKNPKGFFLLVEGGRIDHGHHEGKAKQALHEAVEMDRAIGQAGSLTSSEDTLTVVTADHSHVFTFGGYTPRGNSIFGLAPMLSDTDKKPFTAILYGNGPGYKVVGGERENVSMVDYAHNNYQAQSAVPLRHETHGGEDVAVFSKGPMAHLLHGVHEQNYVPHVMAYAACIGANLGHCAPAS

Tests used:
[1] = references 30-31; cited from earlier work
HCN-2 cells = experiment: Inhibition of biomineralization (hydroxyapatite production) by HCN-2 cells, Alizarin Red staining; type: cell-based, human; settings: for effect on alkaline phosphatase and alpha-glycerophosphate triggered biomineralization / hydroxyapatite production by HCN-2 cells, each compound alone: FIGS. 5A-5B
[2] = tested on: in vitro biomineralization reaction; experiment: Titration of the elements that trigger the in vitro biomineralization reaction; type: cell-based; settings: titration assays, calcium, αGP and TNAP concomitantly present
Experimental: It is determined herein that the biomineralization reaction is dose-dependent on calcium, alpha-glycerophosphate and alkaline phosphatase. It is known that the physiological concentration of alkaline phosphatase in the brain is 1-2 international units per liter (IU/L), which is substantially lower than alkaline phosphatase in peripheral blood serum (44 to 147 IU/L)) (35, 36). […] The minimum dose of calcium, αGP, and TNAP that promptly triggers in vitro biomineralization reaction is 0.45 mM, 1.0 mM, and 100 IU/L, respectively (22).
To measure the physiological glycerophosphate, a method to quantify this organic compound in peripheral blood serum was invented The method of quantifying alpha-glycerophosphate is disclosed in international publication WO 2021/076851, the entirety of which is hereby incorporated by reference. […] The physiological concentration of alpha-glycerophosphate varied substantially amid adult individuals with a mean value of 2.90 mM and standard deviation of 1.98 (median=2.42 mM, max=9.60 mM, and min=0.15 mM). The wide range of alpha-glycerophosphate in blood is likely attributed to personal diet, e.g., a fatty diet and gut microbiome, and physical activity because alpha-glycerophosphate is a metabolite derived from fat to energize mitochondria (37). Overall, 83% of tested samples contained alpha-glycerophosphate greater than 1.0 mM, which is sufficient to trigger biomineralization when calcium and alkaline phosphatase are concomitantly present.

Molecule | crossing of the blood-brain barrier [1] | effect on alkaline phosphatase and alpha-glycerophosphate triggered biomineralization (HCN-2 cells) | hydroxyapatite production by HCN-2 cells, each compound alone (HCN-2 cells; in vitro) | minimum dose that promptly triggers in vitro biomineralization reaction [2] | further results
O=C(O)P(=O)(O)O [Foscarnet, phosphonoformic acid] | cross the blood-brain barrier | inhibitory effects | entirely cease | – | concentration of Foscarnet that can competitively inhibit biomineralization (HCN-2 cells; in vitro, HCN-2 cells, MEMα/10% FBS with αGP and TNAP, 7 days, Alizarin Red (FIGS. 5A-5B)): at least 0.02 mM
Cl.c1ccc([C@H]2CN3CCSC3=N2)cc1 [Levamisole, (−)-(s)-2,3,5,6-tetrahydro-6-phenylimidazo(2,1-b)thiazole mono hydrochloride] | cross the blood-brain barrier | inhibitory effects | entirely cease | – | concentration of Levamisole at which biomineralization is inhibited (HCN-2 cells; HCN-2 cells, alpha-glycerophosphate 2 mM, recombinant human TNAP 1,000 U/L): 1 mM
[Ca+2] [calcium] | – | – | – | 0.45 mM | –
O=P(O)(O)OCC(O)CO (stereo not drawn) [αGP, alpha-glycerophosphate] | – | – | – | 1.0 mM | minimum dose that promptly triggers in vitro biomineralization reaction ([2]; listed as alpha-glycerophosphate): ≥ 1.0 mM
B1 | – | – | – | 100 IU/L | –
